Laboratory results reported in patent US20090264433A1, “Compounds, Compositions and Methods Comprising Triazine Derivatives” (Institute for OneWorld Health, priority 2008, published 2009).
Where a name gives a salt, the structure may show the parent alone.

What follows are compounds tested against T1, CFTR channel in human colonic T84 cells (Homo sapiens, UniProt P13569) (assay: T84 assay (FLIPR membrane potential dye, forskolin/IBMX-stimulated CFTR)). Conditions: average of at least 2 runs unless annotated n = 1.
T1 construct: results in the phosphorylation and opening of CFTR anion channels; host or cells: human colonic T84 cells
Type: cell-based
Summary of the method: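 T84 cells (25,000/well, grown overnight) were washed in HBSS with 10 mM Hepes, then loaded with FLIPR Red membrane potential dye for 45 min with or without compound. CFTR was stimulated with 10 μM forskolin plus 100 μM IBMX after a 10 s baseline. Depolarization was tracked as a fluorescence increase, read every second for 150 s.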

T1 sequence (P13569 whole entry): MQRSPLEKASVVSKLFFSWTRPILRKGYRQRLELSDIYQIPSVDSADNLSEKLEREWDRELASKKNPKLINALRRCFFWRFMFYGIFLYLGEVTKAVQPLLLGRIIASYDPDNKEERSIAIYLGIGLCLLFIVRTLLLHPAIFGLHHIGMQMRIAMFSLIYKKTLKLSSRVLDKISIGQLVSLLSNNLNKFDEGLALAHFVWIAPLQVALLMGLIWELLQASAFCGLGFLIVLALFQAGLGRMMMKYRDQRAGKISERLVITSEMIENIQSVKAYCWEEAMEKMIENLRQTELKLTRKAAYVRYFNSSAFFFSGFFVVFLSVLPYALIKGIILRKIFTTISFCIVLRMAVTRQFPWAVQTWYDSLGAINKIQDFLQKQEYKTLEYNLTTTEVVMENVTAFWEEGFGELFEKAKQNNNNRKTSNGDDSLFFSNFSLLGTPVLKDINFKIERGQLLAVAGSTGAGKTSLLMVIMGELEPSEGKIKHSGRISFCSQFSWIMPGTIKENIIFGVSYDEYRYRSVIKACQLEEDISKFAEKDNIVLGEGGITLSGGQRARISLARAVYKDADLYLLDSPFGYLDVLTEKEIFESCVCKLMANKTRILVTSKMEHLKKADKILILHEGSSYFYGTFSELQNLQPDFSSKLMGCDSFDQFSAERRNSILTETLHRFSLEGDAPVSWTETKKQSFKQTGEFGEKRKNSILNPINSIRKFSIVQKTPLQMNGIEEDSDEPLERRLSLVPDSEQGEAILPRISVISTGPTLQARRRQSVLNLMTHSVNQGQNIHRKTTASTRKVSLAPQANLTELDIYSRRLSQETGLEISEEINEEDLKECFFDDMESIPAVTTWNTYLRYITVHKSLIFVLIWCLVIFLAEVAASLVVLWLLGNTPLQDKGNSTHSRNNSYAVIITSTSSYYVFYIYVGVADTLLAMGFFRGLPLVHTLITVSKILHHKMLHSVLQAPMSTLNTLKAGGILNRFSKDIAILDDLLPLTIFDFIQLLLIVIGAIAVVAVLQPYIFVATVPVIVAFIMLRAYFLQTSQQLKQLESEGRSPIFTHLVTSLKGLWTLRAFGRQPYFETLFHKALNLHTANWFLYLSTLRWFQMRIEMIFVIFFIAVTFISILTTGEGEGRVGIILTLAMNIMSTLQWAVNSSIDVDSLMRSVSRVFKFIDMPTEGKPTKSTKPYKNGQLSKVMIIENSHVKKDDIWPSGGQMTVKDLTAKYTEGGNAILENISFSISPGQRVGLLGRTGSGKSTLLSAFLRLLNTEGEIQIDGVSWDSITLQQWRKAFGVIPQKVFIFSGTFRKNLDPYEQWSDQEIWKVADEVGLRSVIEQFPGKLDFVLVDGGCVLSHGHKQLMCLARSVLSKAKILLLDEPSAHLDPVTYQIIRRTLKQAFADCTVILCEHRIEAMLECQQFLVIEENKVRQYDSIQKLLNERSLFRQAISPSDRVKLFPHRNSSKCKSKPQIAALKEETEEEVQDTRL

IC50 | Structure (SMILES)
0.84 µM | CC(Oc1ncc(-c2cc(Br)c(O)c(Br)c2)nn1)c1ccc(Cl)cc1 (stereo not drawn) [Compound 11, 2,6-dibromo-4-(3-(1-(4-chlorophenyl)ethoxy)-1,2,4-triazin-6-yl)phenol]
3.36 µM | Oc1c(Cl)cc(-c2cnc(OCc3cccc(Cl)c3Cl)nn2)cc1Cl [Compound 114, 2,6-dichloro-4-(3-(2,3-dichlorobenzyloxy)-1,2,4-triazin-6-yl)phenol]
1.89 µM | O=C(c1ccccc1Cl)N1CCN(Cc2ccc(COc3ncc(-c4cc(Cl)c(O)c(Cl)c4)nn3)cc2)CC1 [Compound 220, (2-chlorophenyl)(4-(4-((6-(3,5-dichloro-4-hydroxyphenyl)-1,2,4-triazin-3-yloxy)methyl)benzyl)piperazin1-yl)methanone]
2.33 µM | Oc1c(Cl)cc(-c2cnc(OCCc3ccc(F)cc3)nn2)cc1Cl [Compound 179, 2,6-dichloro-4-(3-(4-fluorophenethoxy)-1,2,4-triazin-6-yl)phenol]
19.8 µM | Cc1ccc(C)c(OCc2ncc(-c3cc(Br)c(O)c(Br)c3)nn2)c1 [Compound 52, 2,6-dibromo-4-(3-((2,5-dimethylphenoxy)methyl)-1,2,4-triazin-6-yl)phenol]
3.02 µM | Oc1c(Br)cc(-c2cnc(OCc3ccc(Br)cc3)nn2)cc1Br [Compound 24, 2,6-Dibromo-4-(3-(4-bromobenzyloxy)-1,2,4-triazin-6-yl)phenol]
2.83 µM | Oc1c(Cl)cc(-c2cnc(OCc3ccc(F)c(F)c3)nn2)cc1Cl [Compound 147, 2,6-dichloro-4-(3-(3,4-difluorobenzyloxy)-1,2,4-triazin-6-yl)phenol]
22.4 µM | OCCN(Cc1cccnc1)c1ncc(-c2cc(Cl)c(O)c(Cl)c2)nn1 [Compound 160, 2,6-dichloro-4-(3-((2-hydroxyethyl)(pyridin-3-ylmethyl)amino)-1,2,4-triazin-6-yl)phenol]
1.17 µM | CN(C)c1cccc(COc2ncc(-c3cc(Br)c(O)c(Br)c3)nn2)c1 [Compound 17, 2,6-dibromo-4-(3-(3-(dimethylamino)benzyloxy)-1,2,4-triazin-6-yl)phenol]
3.37 µM | OCCN(Cc1ccccc1)Cc1ccc(COc2ncc(-c3cc(Cl)c(O)c(Cl)c3)nn2)cc1 [Compound 159, 4-(3-(4-((benzyl(2-hydroxyethyl)amino)methyl)benzyloxy)-1,2,4-triazin-6-yl)-2,6-dichlorophenol]
12.4 µM | O=C(C1CC1)N1CCN(Cc2ccc(COc3ncc(-c4cc(Cl)c(O)c(Cl)c4)nn3)cc2)CC1 [Compound 219, cyclopropyl(4-(4-((6-(3,5-dichloro-4-hydroxyphenyl)-1,2,4-triazin-3-yloxy)methyl)benzyl)piperazin1-yl)methanone]
11 µM | Oc1c(Br)cc(-c2cnc(COc3ccc(Cl)cc3Cl)nn2)cc1Br [Compound 42, 2,6-dibromo-4-(3-((2,4-dichlorophenoxy)methyl)-1,2,4-triazin-6-yl)phenol]
11.8 µM | O=C(c1cccnc1)N1CCN(Cc2ccc(COc3ncc(-c4cc(Cl)c(O)c(Cl)c4)nn3)cc2)CC1 [Compound 224, (4-(4-((6-(3,5-dichloro-4-hydroxyphenyl)-1,2,4-triazin-3-yloxy)methyl)benzyl)piperazin-1-yl)(pyridin-3-yl)methanone]
1.35 µM | Cc1cc(Cl)ccc1COc1ncc(-c2cc(Br)c(O)c(Br)c2)nn1 [Compound 29, 2,6-dibromo-4-(3-(4-chloro-2-methylbenzyloxy)-1,2,4-triazin-6-yl)phenol]
2.64 µM | CN(Cc1ccc(COc2ncc(-c3cc(Cl)c(O)c(Cl)c3)nn2)cc1)Cc1ccc(-c2ccccn2)cc1 [Compound 197, 2,6-dichloro-4-(3-(4-((methyl(4-(pyridin-2-yl)benzyl)amino)methyl)benzyl-oxy)-1,2,4-triazin-6-yl)phenol]
0.64 µM | CC(C)(C)c1ccc(CCOc2ncc(-c3cc(Br)c(O)c(Br)c3)nn2)cc1 [Compound 93, 2,6-dibromo-4-(3-(4-tert-butylphenethoxy)-1,2,4-triazin-6-yl)phenol]
3.9 µM | Oc1c(Cl)cc(-c2cnc(OCc3ccc(CNCc4cccc5ccccc45)cc3)nn2)cc1Cl [Compound 149, 2,6-Dichloro-4-(3-(4-((naphthalen-1-ylmethylamino)methyl)benzyloxy)-1,2,4-triazin-6-yl)phenol]
2.7 µM | Oc1c(Br)cc(-c2cnc(OCc3cccc(Cl)c3Cl)nn2)cc1Br [Compound 23, 2,6-dibromo-4-(3-(2,3-dichlorobenzyloxy)-1,2,4-triazin-6-yl)phenol]
9.15 µM | CN(Cc1ccc(COc2ncc(-c3cc(Cl)c(O)c(Cl)c3)nn2)cc1)Cc1cccc2ccccc12 [Compound 181, 2,6-dichloro-4-(3-(4-((methyl(naphthalen-1-ylmethyl)amino)methyl)benzyl-oxy)-1,2,4-triazin-6-yl)phenol]
11.8 µM | Oc1c(Cl)cc(-c2cnc(OCc3ccc(CN4CCCc5ccccc54)cc3)nn2)cc1Cl [Compound 182]
21.3 µM | CN1CCN(c2ccc(CNc3ncc(-c4cc(Cl)c(O)c(Cl)c4)nn3)cc2)CC1 [Compound 137, 2,6-dichloro-4-(3-(4-(4-methylpiperazin-1-yl)benzylamino)-1,2,4-triazin-6-yl)phenol, formate salt]
1.89 µM | Oc1c(Cl)cc(-c2cnc(OCc3cccc4ccccc34)nn2)cc1Cl [Compound 116, 2,6-dichloro-4-(3-(naphthalen-1-ylmethoxy)-1,2,4-triazin-6-yl)phenol]
15.4 µM | Oc1c(Cl)cc(-c2cnc(OCc3ccc(CNCc4ccncc4)cc3)nn2)cc1Cl [Compound 156, 2,6-dichloro-4-(3-(4-((pyridin-4-ylmethylamino)methyl)benzyloxy)-1,2,4-triazin-6-yl)phenol]
0.54 µM | Oc1c(Br)cc(-c2cnc(OCc3ccc(F)cc3F)nn2)cc1Br [Compound 4, 2,6-dibromo-4-(3-(2,4-difluorobenzyloxy)-1,2,4-triazin-6-yl)phenol]
14.8 µM | Oc1c(Br)cc(-c2cnc(COc3ccc4c(c3)CCC4)nn2)cc1Br [Compound 48, 2,6-dibromo-4-(3-((2,3-dihydro-1H-inden-5-yloxy)methyl)-1,2,4-triazin-6-yl)phenol]
2.17 µM | Oc1c(Cl)cc(-c2cnc(OCc3cccc(OC(F)(F)F)c3)nn2)cc1Cl [Compound 153, 2,6-dichloro-4-(3-(3-(trifluoromethoxy)benzyloxy)-1,2,4-triazin-6-yl)phenol]

Structure (SMILES) | IC50
O=C(COc1ccccc1)N1CCN(Cc2ccc(COc3ncc(-c4cc(Cl)c(O)c(Cl)c4)nn3)cc2)CC1 [Compound 155, 1-(4-(4-((6-(3,5-dichloro-4-hydroxyphenyl)-1,2,4-triazin-3-yloxy)methyl)benzyl)piperazin1-yl)-2-phenoxyethanone] | 4.95 µM
O=Cc1ccc(COc2ncc(-c3cc(Cl)c(O)c(Cl)c3)nn2)cc1 [Compound 142, 4-((6-(3,5-dichloro-4-hydroxyphenyl)-1,2,4-triazin-3-yloxy)methyl)benzaldehyde] | 10.7 µM
Oc1c(Br)cc(-c2cnc(OCCc3ccccc3)nn2)cc1Br [Compound 96, 2,6-dibromo-4-(3-phenethoxy-1,2,4-triazin-6-yl)phenol] | 0.47 µM
Cc1csc(CC(=O)N2CCN(Cc3ccc(COc4ncc(-c5cc(Cl)c(O)c(Cl)c5)nn4)cc3)CC2)n1 [Compound 225, 1-(4-(4-((6-(3,5-dichloro-4-hydroxyphenyl)-1,2,4-triazin-3-yloxy)methyl)benzyl)piperazin-1-yl)-2-(4-methylthiazol-2-yl)ethanone] | 11.1 µM
